From the COVID Moonshot data (paper PMC7615835)
Values joined by “and” are separate entries in the source; they are usually repeats but may differ in a detail not shown here. Equal entries are not always repeated.

Molecular target: SARS-CoV-2 Main Protease (SARS-CoV-2) (UniProt P0DTD1)

Row | SMILES | IC50
1 | O=C(Nc1cnccc1CO)[C@@H]1COc2ccc(Cl)cc21 (stereo in doubt) | 42.7 µM and 42 µM
2 | COC1(CS(=O)(=O)N2Cc3ccc(Cl)cc3C3(CCN(c4cncc5cc(S(C)(=O)=O)ccc45)C3=O)C2)CC1 (centres undefined) | 0.413 µM
3 | O=C(NCCc1cccc(F)c1)C(c1cccnc1)N(C(=O)c1cocn1)c1cn(Cc2ccccc2)cn1 (centres undefined) | 27.3 µM
4 | CCC(c1ccncc1)N(C)C(=O)Cc1c[nH]c2ncccc12 (centres undefined) | > 99.5 µM
5 | N#CCN1Cc2ccc(Cl)cc2C(C(=O)Nc2cncc3ccccc23)C1 (centres undefined) | 0.335 µM
6 | Cc1ccncc1NC(=O)Cc1cc(Cl)cc(OCc2nnc(C3CCCCC3)o2)c1 | 20.6 µM
7 | O=C(Cc1cc(Cl)cc(Nc2cccnc2Br)c1)Nc1cncc2ccccc12 | 2.08 µM
8 | CC1(CS(=O)(=O)N2Cc3ccc(Cl)cc3C(C(=O)Nc3cncc4cc(S(C)(=O)=O)ccc34)C2)CS(=O)(=O)C1 (centres undefined) | 0.0836 µM and 0.147 µM
9 | O=C(Nc1cncc2c1CCCC2)C1CNS(=O)(=O)c2ccc(Cl)cc21 (centres undefined) | 0.452 µM
10 | O=C(Cc1cccc(Cl)c1)Nc1cncc2[nH]ccc12 | 6.19 µM
11 | Nc1cncc(NC(=O)C2CCOc3ccc(Cl)cc32)c1C1CC1 (centres undefined) | 4.95 µM
12 | O=C1CC(N2CC(C(=O)Nc3cncc4ccccc34)c3cc(Cl)ccc3C2=O)CN1 (centres undefined) | 0.681 µM
13 | O=C1CCN(S(=O)(=O)c2cccc(F)c2)CC1 | > 99.5 µM
14 | CC1(CS(=O)(=O)N2Cc3ccc(Cl)cc3C(C(=O)Nc3cncc4ccccc34)C2)CC1 (centres undefined) | 0.098 µM
15 | CCc1cc(Br)ccc1Nc1cc(Cl)cc(CC(=O)Nc2cncc3ccccc23)c1 | 3.15 µM
16 | CC(C)(C)c1ccc(N(C(=O)c2ccns2)C(C(=O)NCCc2cccc(F)c2)c2cccnc2)cc1 (centres undefined) | 51.1 µM
17 | N#CC1(CS(=O)(=O)N2Cc3ccc(Cl)cc3C3(CCN(c4cncc5ccccc45)C3=O)C2)CCCC1 (centres undefined) | 0.244 µM
18 | Cc1ccc(C(Cc2cnn(C)c2)C(=O)Nc2n[nH]c3ccccc23)cc1 (centres undefined) | > 99.5 µM
19 | CNC(=O)CN1Cc2ccc(Cl)cc2C(C(=O)Nc2cncc3cc(COC)ccc23)C1 (centres undefined) | 0.119 µM
20 | CNC(=O)CN1Cc2ccc(Cl)cc2C2(CCN(c3cncc4ccc(OC)cc34)C2=O)C1 (centres undefined) | 0.153 µM
21 | O=C(Nn1nnc2ccccc21)C(Cc1cccc(Cl)c1)c1ccc(N2CCCCC2=O)cc1 (centres undefined) | 50.9 µM
22 | Cc1ccncc1NC(=O)Cc1cc(Cl)cc(/C=C(/c2ccccc2)C(F)(F)F)c1 | 22.8 µM
23 | Cc1ccc(C(Cc2ccccc2)C(=O)Nc2nnn3ccccc23)cc1 (centres undefined) | > 99.5 µM
24 | O=C(NCCc1cccc(F)c1)C(c1cccnc1)N(C(=O)c1cnc[nH]1)C1CCN(c2ccccc2)C1 (centres undefined) | > 99 µM
25 | Cc1nn2c(CNc3ccc(Cn4cncn4)cc3)c(C)nc2s1 | > 99.5 µM

Row | SMILES | IC50
26 | O=C(Nc1cncc2ccccc12)C1CN(S(=O)(=O)N2CCCC2CO)Cc2ccc(Cl)cc21 (centres undefined) | 1.14 µM
27 | CNC(=O)CN1C[C@@H](C(=O)Nc2cncc3cccc(Cl)c23)c2cc(Cl)ccc2C1=O (stereo in doubt) | 14.6 µM
28 | NCc1cn(CC(=O)N(Cc2ccsc2)c2ccc(-c3ccccc3)cc2)nn1 | > 99.5 µM
29 | C=CC(=O)N(c1ccc(C2(C)CC2)cc1)C(C(=O)Nc1ccc(Br)cc1)c1cccnc1 (centres undefined) | 83.7 µM and 81.2 µM
30 | CN(c1cc(Cl)cc(CC(=O)Nc2cncc3ccccc23)c1)[C@@H]1CCN(Cc2ccccc2)C1 (stereo in doubt) | 2.04 µM
31 | COc1cccc(CNc2cc(Cl)cc(CC(=O)Nc3cncc4ccccc34)c2)c1OC | 2.48 µM
32 | C=CC(=O)N(c1ccc(C(F)(F)F)cc1)C(C(=O)NCCc1cccc(F)c1)c1cncc(Cl)c1 (centres undefined) | 23.9 µM
33 | Cc1ccn2cnnc2c1NC(=O)Cc1cccc(Cl)c1 | 75.3 µM
34 | O=C(Nc1cncc2ccccc12)C1CN(S(=O)(=O)C2CCOC2)Cc2ccc(Cl)cc21 (centres undefined) | 0.152 µM
35 | N#Cc1cc(Cl)c(Nc2cc(Cl)cc(CC(=O)Nc3cncc4ccccc34)c2)c(Cl)c1 | 1.79 µM
36 | O=C(Cc1cc(Cl)cc(NCc2ccc(Cl)c(C(F)(F)F)c2)c1)Nc1cncc2ccccc12 | 2.98 µM
37 | N#CC1(CS(=O)(=O)N2Cc3ccc(Cl)cc3C3(CCN(c4cncc5ccc(C(F)F)cc45)C3=O)C2)CC1 (centres undefined) | 0.354 µM
38 | O=C(NCCc1cccc(F)c1)C(c1cccnc1)N(C(=O)c1cocn1)c1ccc2c(c1)CCOC2 (centres undefined) | > 99.5 µM
39 | O=C(Cc1cc(Cl)cc(Nc2ccc(SC(F)(F)F)cc2)c1)Nc1cncc2ccccc12 | 1.84 µM
40 | CS(=O)(=O)Nc1ccc2cncc(NC(=O)C3CCS(=O)(=O)c4ccc(Cl)cc43)c2c1 (centres undefined) | 0.204 µM
41 | CN1Cc2c(Cl)cc(Cl)cc2[C@H](c2cccc(S(=O)(=O)NCCOCCOCCNC(=O)NCCCCNC(=O)NCCOCCOCCNS(=O)(=O)c3cccc([C@@H]4CN(C)Cc5c(Cl)cc(Cl)cc54)c3)c2)C1 (stereo in doubt) | > 99 µM
42 | Cc1cc2ncc(C(=O)Nc3ccc4oc(C)nc4c3)c(C)n2n1 | > 99.5 µM
43 | COc1ccccc1OC1CN(C(=O)c2cc(=O)[nH]c3ccccc23)C1 | > 99.5 µM
44 | O=C(Nc1cncc2ccccc12)C1CN(S(=O)(=O)CC2CC2)Cc2ccc(Cl)cc21 (centres undefined) | 0.168 µM
45 | NS(=O)(=O)NCCNS(=O)(=O)c1ccccc1[N+](=O)[O-] | > 99.5 µM
46 | O=C(Cc1cc(Cl)cc(Nc2c(Br)cncc2[N+](=O)[O-])c1)Nc1cncc2ccccc12 | 1.83 µM
47 | O=C(Nc1cncc2ccncc12)[C@H]1CCOc2cc(F)c(Cl)cc21 (stereo in doubt) | > 99.5 µM
48 | Cc1ccncc1NC(=O)Cc1cc(Cl)cc(-c2ccc(C)c(F)c2F)c1 | 31.9 µM
49 | Cc1cc(C(=O)N2CCC(C3CCNC3)CC2)cc(S(=O)(=O)N(C)C)c1C (centres undefined) | > 99.5 µM
50 | O=C(Cc1cc(Cl)cc(Nc2cnc(Br)c(Cl)n2)c1)Nc1cncc2ccccc12 | 1.94 µM

Row | SMILES | IC50
51 | CC(=O)NCc1cc(Cl)cc(CC(=O)Nc2cnccc2C)c1 | 41.3 µM
52 | CC(=O)C(=O)N1CCN(Cc2cccc(Cl)c2)CC1 | > 99.5 µM
53 | Cc1ccc(N(C(=O)c2cocn2)C(C(=O)NCCc2cccc(F)c2)c2cccnc2)cc1 (centres undefined) | 50.2 µM
54 | N#CC1(CS(=O)(=O)N2Cc3ccc(Cl)cc3C(C(=O)Nc3cncc4c[nH]nc34)C2)CC1 (centres undefined) | 1.05 µM
55 | CN(C)C(=O)CN1CCC(C(=O)Nc2cncc3ccccc23)c2cc(Cl)ccc21 (centres undefined) | 2.54 µM
56 | O=C(Cn1ccc(=O)[nH]c1=O)OCc1ccc(-c2ccccc2)cc1 | > 99.5 µM
57 | CC(C)(C)c1ccc(N(C(=O)c2coc(CS(C)(=O)=O)n2)C(C(=O)NCCc2cccc(F)c2)c2cccnc2)cc1 (centres undefined) | 39.2 µM
58 | CC1(CS(=O)(=O)N2Cc3ccc(Cl)cc3[C@H](C(=O)Nc3cncc4ccccc34)C2)CC1 (stereo in doubt) | < 0.05 µM and 0.0846 µM and 0.0459 µM
59 | Cc1ccc(S(=O)(=O)N2CCN(C(=O)CCl)C[C@H]2C(=O)NCCc2ccccc2)cc1 (stereo in doubt) | 11.8 µM
60 | O=C(Cc1cc(Cl)cc(NCc2cccc(Br)c2)c1)Nc1cncc2ccccc12 | 1.48 µM
61 | O=C(N/N=c1\cc[nH]c2ccccc12)c1ccc2ncccc2c1 | > 99.5 µM
62 | O=C(Cc1cc(Cl)cc(N2CCCCC2)c1)Nc1cncc2ccccc12 | > 9.95 µM
63 | O=C(c1ccc(N2CCCC2)nc1)N1CCCC(c2ccn[nH]2)C1 (centres undefined) | > 99.5 µM
64 | CCN(CC)S(=O)(=O)c1ccc(Nc2cc(Cl)cc(CC(=O)Nc3cncc4ccccc34)c2)cc1 | 2.15 µM
65 | COc1cc(Br)ccc1Nc1cc(Cl)cc(CC(=O)Nc2cncc3ccccc23)c1 | 1.39 µM
66 | O=C(Nc1cncc2ccccc12)C1(CO)CCOc2ccc(Cl)cc21 (centres undefined) | 1.09 µM
67 | O=C(Cc1cc(Cl)cc(Nc2ccccc2Oc2ccccc2)c1)Nc1cncc2ccccc12 | 2.19 µM
68 | O=C(Nc1cnn2ccccc12)C1CCS(=O)(=O)c2ccc(Cl)cc21 (centres undefined) | 3.89 µM
69 | CNC(=O)CN1Cc2ccc(Cl)cc2C2(CCN(c3cncc4ccc(F)cc34)C2=O)C1 (centres undefined) | 0.267 µM
70 | N#Cc1ccc(Nc2cc(Cl)cc(CC(=O)Nc3cncc4ccccc34)c2)c(I)c1 | 1.62 µM
71 | Cc1ccn2c(NC(=O)Cc3cccc(Cl)c3)cnc2c1 | 19.6 µM
72 | O=C(Cc1cc(Cl)cc(Nc2cncc(Br)c2)c1)Nc1cncc2ccccc12 | 2.16 µM
73 | CN1C(=O)c2ccc(Nc3cc(Cl)cc(CC(=O)Nc4cncc5ccccc45)c3)cc2C1=O | 1.66 µM
74 | Cn1nc(C(=O)N2CCOCC2)cc1C(=O)N(c1ccc(C(C)(C)C)cc1)C(C(=O)NCCc1cccc(F)c1)c1cccnc1 (centres undefined) | 92.1 µM
75 | O=C(Cc1ccc(C(F)(F)F)cc1)Nc1cncc2ccccc12 | 24.8 µM

Row | SMILES | IC50
76 | CC(C)(C)c1ccc(N(C(=O)c2c[nH]c(=O)s2)C(C(=O)NCCc2cccc(F)c2)c2cccnc2)cc1 (centres undefined) | 29.1 µM
77 | CC(C)(C(N)=O)c1ccc(N(Cc2ccsc2)C(=O)Cn2nnc3ccccc32)cc1 | 3.17 µM
78 | N#Cc1ncc(F)cn1 | > 99.5 µM
79 | C=CC(=O)N(c1ccc(C(C)(C)C)cc1)C(C(=O)NCCc1cccc(F)c1)c1cncc(C#N)c1 (centres undefined) | 7.48 µM
80 | O=C(CN1CC2(CCN(c3cncc4ccccc34)C2=O)c2cc(Cl)ccc2S1(=O)=O)NCC1CC1 (centres undefined) | 0.203 µM
81 | CCOC(=O)c1nc(S(C)(=O)=O)ncc1Cl | 1.6 µM
82 | CC(C)(C)c1ccc(N(C(=O)c2cocn2)C(C(=O)NC2CCOCC2)c2cccnc2)cc1 (centres undefined) | 3.9 µM
83 | Cc1ccncc1NC(=O)Cc1cc(Cl)cc(-c2ccc(C3CC3(F)F)cc2)c1 (centres undefined) | 8.44 µM
84 | O=C(CN1CC(C(=O)Nc2cncc3cc(F)ccc23)c2cc(Cl)ccc2C1=O)NC1CCC1 (centres undefined) | 0.34 µM
85 | N#Cc1ncc(Cl)cn1 | > 99.5 µM
86 | O=C(Cc1cccc(Cl)c1)NC1C(=O)NCc2ccccc21 (centres undefined) | > 99.5 µM
87 | CC1(C)Nc2ccccc2C1NC(=O)Cc1cccc(Cl)c1 (centres undefined) | > 99.5 µM
88 | Cc1ccc(S(=O)(=O)NC2CCN(C(=O)CCl)CC2)cc1 | 33.5 µM
89 | O=C(Nc1cncc2ccccc12)C1COc2c(Cl)cccc21 (centres undefined) | 4.76 µM
90 | Cc1nc(N2CCN(S(=O)(=O)c3ccccc3)CC2)sc1S(N)(=O)=O | > 99.5 µM
91 | CCc1ccc([N+](=O)[O-])cc1Nc1cc(Cl)cc(CC(=O)Nc2cncc3ccccc23)c1 | 1.71 µM
92 | Cc1ccncc1NC(=O)CCc1cccc(F)c1 | 58.5 µM
93 | CN(c1cc(Cl)cc(CC(=O)Nc2cncc3ccccc23)c1)C(c1ccccc1)c1ccccc1 | 2.34 µM
94 | COC[C@@]1(C(=O)Nc2cncc3ccccc23)CCOc2cc(Cl)c(Cl)cc21 (stereo in doubt) | 13 µM and 21.9 µM
95 | C=CC(=O)N1CCN(S(=O)(=O)c2ccccc2)CC1 | > 99.5 µM
96 | CCCc1cc2c(cc1S(=O)(=O)N1CCN(c3cccc(Cl)c3Cl)CC1)OCO2 | > 99.5 µM
97 | O=C(CCl)NC(CO)c1cccc(Cl)c1 (centres undefined) | > 99 µM
98 | O=C(Cc1cc(Cl)cc(Nc2nnc(C(F)(F)F)s2)c1)Nc1cncc2ccccc12 | 2.44 µM
99 | CC(NC(=O)c1ccc2oc(=S)[nH]c2c1)c1nnc2ccccn12 (centres undefined) | > 99.5 µM
